Where a name gives a salt, the structure may show the parent alone. Read-outs that look alike come from different tables or passages of the source.
Legend:
[1] = test system: hTERT-RPE1 cells; assay: MTT cytotoxicity assay, hTERT-RPE1 normal cells; type: cell-based, human; settings: read-out: IC50 hTERT-RPE1
Method: (§1) The anticancer activities of compounds 17–24, 41–56 against MCF-7, MDA-MB-231 and hTERT-RPE1 cells were determined in vitro by an MTT assay. […] The data was calculated and presented as IC50 values in Table 1.
(§2) The cytotoxicities of the compounds were evaluated by the MTT assay, which is based on the conversion of MTT to formazan crystals by mitochondrial dehydrogenases. […] The medium was incubated with 20 μL of 5 mg/mL MTT solution for 3 h in a humidified incubator containing 5% CO2. The purple coloured formazan crystals formed in the wells were dissolved in DMSO and their absorbances were measured at 570 nm with a microplate reader. Cell viability was expressed as a percentage of the value in control cultures.

[2] = test system: MCF-7 cells; assay: MTT cytotoxicity assay, MCF-7; type: cell-based, human; settings: read-out: IC50 MCF-7
Method: as §1, §2

[3] = test system: MDA-MB-231 cells; assay: MTT cytotoxicity assay, MDA-MB-231; type: cell-based, human; settings: read-out: IC50 MDA-MB-231
Method: The data was calculated and presented as IC50 values in Table 1.
as §2

[4] = normal human retinal pigment epithelial cell line hTERT-RPE1, MTT method, 24 h treatment, mean ± SD
[5] = MCF7, human breast cancer cell line MCF-7, MTT method, 24 h treatment, mean ± SD
[6] = human breast cancer cell line MDA-MB-231, MTT method, 24 h treatment, mean ± SD

Structure (SMILES)	melting point	IC50 ([1]; Homo sapiens, hTERT-RPE1, 24 h)	IC50 ([2]; Homo sapiens, MCF7, 24 h)	IC50 ([3]; Homo sapiens, MDA-MB-231, 24 h)	further results
CCOC(=O)/C=C/c1cccc(OC(=O)[C@@]2(C)CC[C@]3(C)CC[C@]4(C)C(=CC(=O)[C@@H]5[C@@]6(C)CC[C@H](OC(=O)[C@@H](N)CC[Se]C)C(C)(C)[C@@H]6CC[C@]54C)[C@@H]3C2)c1 (as salt: hydrochloride) [Compound 56, trans-3-Hydroxycinnamic acid ethyl ester 3β-(l-selenomethionine)-11-oxo-olean-12-en-30-oate hydrochloride]	191 to 194 °C	–	–	–	–
COC(=O)/C=C/c1ccc(OC(=O)[C@@]2(C)CC[C@]3(C)CC[C@]4(C)C(=CC(=O)[C@@H]5[C@@]6(C)CC[C@H](OC(=O)[C@@H](N)CC[Se]C)C(C)(C)[C@@H]6CC[C@]54C)[C@@H]3C2)c(OC)c1 (as salt: hydrochloride) [Compound 42, Ferulic acid methyl ester 3β-(l-selenomethionine)-11-oxo-olean-12-en-30-oate hydrochloride]	210 to 213 °C	–	–	–	–
CCOC(=O)/C=C/c1ccc(OC(=O)[C@@]2(C)CC[C@]3(C)CC[C@]4(C)C(=CC(=O)[C@@H]5[C@@]6(C)CC[C@H](OC(=O)[C@@H](N)CC[Se]C)C(C)(C)[C@@H]6CC[C@]54C)[C@@H]3C2)cc1 (as salt: hydrochloride) [Compound 48, trans-4-Hydroxycinnamic acid ethyl ester 3β-(l-selenomethionine)-11-oxo-olean-12-en-30-oate hydrochloride]	208 to 211 °C	–	–	–	–
COC(=O)/C=C/c1cccc(OC(=O)[C@@]2(C)CC[C@]3(C)CC[C@]4(C)C(=CC(=O)[C@@H]5[C@@]6(C)CC[C@H](OC(=O)[C@@H](N)CCSC)C(C)(C)[C@@H]6CC[C@]54C)[C@@H]3C2)c1 (as salt: hydrochloride) [Compound 53, trans-3-Hydroxycinnamic acid methyl ester 3β-(l-methionine)-11-oxo-olean-12-en-30-oate hydrochloride]	190 to 192 °C	–	–	–	–
COC(=O)/C=C/c1ccc(OC(=O)[C@@]2(C)CC[C@]3(C)CC[C@]4(C)C(=CC(=O)[C@@H]5[C@@]6(C)CC[C@H](OC(=O)[C@@H](N)CC[Se]C)C(C)(C)[C@@H]6CC[C@]54C)[C@@H]3C2)cc1 (as salt: hydrochloride) [Compound 46, trans-4-Hydroxycinnamic acid methyl ester 3β-(l-selenomethionine)-11-oxo-olean-12-en-30-oate hydrochloride]	218 to 221 °C	–	–	–	–
CCOC(=O)/C=C/c1ccc(OC(=O)[C@@]2(C)CC[C@]3(C)CC[C@]4(C)C(=CC(=O)[C@@H]5[C@@]6(C)CC[C@H](OC(=O)[C@@H](N)CC[Se]C)C(C)(C)[C@@H]6CC[C@]54C)[C@@H]3C2)c(OC)c1 (as salt: hydrochloride) [Compound 44, Ferulic acid ethyl ester 3β-(l-selenomethionine)-11-oxo-olean-12-en-30-oate hydrochloride]	205 to 207 °C	–	–	–	–
CCOC(=O)/C=C/c1ccc(OC)c(OC(=O)[C@@]2(C)CC[C@]3(C)CC[C@]4(C)C(=CC(=O)[C@@H]5[C@@]6(C)CC[C@H](OC(=O)[C@@H](N)CCSC)C(C)(C)[C@@H]6CC[C@]54C)[C@@H]3C2)c1 (as salt: hydrochloride) [Compound 51, Isoferulic acid ethyl ester 3β-(l-methionine)-11-oxo-olean-12-en-30-oate hydrochloride]	192 to 195 °C	–	–	–	–
CCOC(=O)/C=C/c1ccc(OC(=O)[C@@]2(C)CC[C@]3(C)CC[C@]4(C)C(=CC(=O)[C@@H]5[C@@]6(C)CC[C@H](OC(=O)[C@@H](N)CCSC)C(C)(C)[C@@H]6CC[C@]54C)[C@@H]3C2)cc1 (as salt: hydrochloride) [Compound 47, trans-4-Hydroxycinnamic acid ethyl ester 3β-(l-methionine)-11-oxo-olean-12-en-30-oatehydrochloride]	202 to 204 °C	–	–	–	–
COC(=O)/C=C/c1ccc(OC(=O)[C@@]2(C)CC[C@]3(C)CC[C@]4(C)C(=CC(=O)[C@@H]5[C@@]6(C)CC[C@H](OC(=O)[C@@H](N)CC[Se]C)C(C)(C)[C@@H]6CC[C@]54C)[C@@H]3C2)c(OC)c1 [Compound 42, Ferulic acid methyl ester 3β-(l-selenomethionine)-11-oxo-olean-12-en-30-oate hydrochloride]	–	4.93 ± 0.36 µM	1.88 ± 0.2 µM	1.37 ± 0.18 µM	–
CCOC(=O)/C=C/c1ccc(OC)c(OC(=O)[C@@]2(C)CC[C@]3(C)CC[C@]4(C)C(=CC(=O)[C@@H]5[C@@]6(C)CC[C@H](OC(=O)[C@@H](N)CC[Se]C)C(C)(C)[C@@H]6CC[C@]54C)[C@@H]3C2)c1 (as salt: hydrochloride) [Compound 52, Isoferulic acid ethyl ester 3β-(l-selenomethionine)-11-oxo-olean-12-en-30-oate hydrochloride]	196 to 198 °C	–	–	–	–
COC(=O)/C=C/c1ccc(OC(=O)[C@@]2(C)CC[C@]3(C)CC[C@]4(C)C(=CC(=O)[C@@H]5[C@@]6(C)CC[C@H](OC(=O)[C@@H](N)CCSC)C(C)(C)[C@@H]6CC[C@]54C)[C@@H]3C2)c(OC)c1 (as salt: hydrochloride) [Compound 41, Ferulic acid methyl ester 3β-(l-methionine)-11-oxo-olean-12-en-30-oate hydrochloride]	203 to 205 °C	–	–	–	–
COC(=O)/C=C/c1ccc(OC(=O)[C@@]2(C)CC[C@]3(C)CC[C@]4(C)C(=CC(=O)[C@@H]5[C@@]6(C)CC[C@H](OC(=O)[C@@H](N)CCSC)C(C)(C)[C@@H]6CC[C@]54C)[C@@H]3C2)c(OC)c1 [Compound 41, Ferulic acid methyl ester 3β-(l-methionine)-11-oxo-olean-12-en-30-oate hydrochloride]	–	–	–	–	IC50 [1, 4]: 10.4 ± 0.8 µM; IC50 [2, 5]: 6 ± 0.43 µM; IC50 [3, 6]: 3.52 ± 0.61 µM
COC(=O)/C=C/c1cccc(OC(=O)[C@@]2(C)CC[C@]3(C)CC[C@]4(C)C(=CC(=O)[C@@H]5[C@@]6(C)CC[C@H](OC(=O)[C@@H](N)CC[Se]C)C(C)(C)[C@@H]6CC[C@]54C)[C@@H]3C2)c1 (as salt: hydrochloride) [Compound 54, trans-3-Hydroxycinnamic acid methyl ester 3β-(l-selenomethionine)-11-oxo-olean-12-en-30-oate hydro-chloride]	194 to 196 °C	–	–	–	–
COC(=O)/C=C/c1cccc(OC(=O)[C@@]2(C)CC[C@]3(C)CC[C@]4(C)C(=CC(=O)[C@@H]5[C@@]6(C)CC[C@H](OC(=O)[C@@H](N)CC[Se]C)C(C)(C)[C@@H]6CC[C@]54C)[C@@H]3C2)c1 [Compound 54, trans-3-Hydroxycinnamic acid methyl ester 3β-(l-selenomethionine)-11-oxo-olean-12-en-30-oate hydro-chloride]	–	4.55 ± 0.44 µM	3.48 ± 0.82 µM	2.46 ± 0.77 µM	–
CC1(C)[C@@H](O)CC[C@]2(C)[C@H]3C(=O)C=C4[C@@H]5C[C@@](C)(C(=O)O)CC[C@]5(C)CC[C@@]4(C)[C@]3(C)CC[C@@H]12 [GA, glycyrrhetinic acid]	–	–	–	–	IC50 [1, 4]: 63.4 ± 1.07 µM; IC50 [2, 5]: 75.7 ± 1.52 µM; IC50 [3, 6]: 84.7 ± 1.73 µM
CCOC(=O)/C=C/c1ccc(OC)c(OC(=O)[C@@]2(C)CC[C@]3(C)CC[C@]4(C)C(=CC(=O)[C@@H]5[C@@]6(C)CC[C@H](OC(=O)[C@@H](N)CC[Se]C)C(C)(C)[C@@H]6CC[C@]54C)[C@@H]3C2)c1 [Compound 52, Isoferulic acid ethyl ester 3β-(l-selenomethionine)-11-oxo-olean-12-en-30-oate hydrochloride]	–	10.1 ± 0.28 µM	6.93 ± 0.63 µM	3.27 ± 0.66 µM	–
CCOC(=O)/C=C/c1cccc(OC(=O)[C@@]2(C)CC[C@]3(C)CC[C@]4(C)C(=CC(=O)[C@@H]5[C@@]6(C)CC[C@H](OC(=O)[C@@H](N)CC[Se]C)C(C)(C)[C@@H]6CC[C@]54C)[C@@H]3C2)c1 [Compound 56, trans-3-Hydroxycinnamic acid ethyl ester 3β-(l-selenomethionine)-11-oxo-olean-12-en-30-oate hydrochloride]	–	3.7 ± 0.29 µM	2.57 ± 0.4 µM	1.53 ± 0.25 µM	–
CCOC(=O)/C=C/c1ccc(OC(=O)[C@@]2(C)CC[C@]3(C)CC[C@]4(C)C(=CC(=O)[C@@H]5[C@@]6(C)CC[C@H](OC(=O)[C@@H](N)CC[Se]C)C(C)(C)[C@@H]6CC[C@]54C)[C@@H]3C2)c(OC)c1 [Compound 44, Ferulic acid ethyl ester 3β-(l-selenomethionine)-11-oxo-olean-12-en-30-oate hydrochloride]	–	12.3 ± 0.46 µM	8.45 ± 0.32 µM	3.49 ± 0.61 µM	–
COC(=O)/C=C/c1ccc(OC(=O)[C@@]2(C)CC[C@]3(C)CC[C@]4(C)C(=CC(=O)[C@@H]5[C@@]6(C)CC[C@H](OC(=O)[C@@H](N)CC[Se]C)C(C)(C)[C@@H]6CC[C@]54C)[C@@H]3C2)cc1 [Compound 46, trans-4-Hydroxycinnamic acid methyl ester 3β-(l-selenomethionine)-11-oxo-olean-12-en-30-oate hydrochloride]	–	6.33 ± 0.19 µM	6.02 ± 0.35 µM	6.27 ± 0.24 µM	–
COC(=O)/C=C/c1ccc(OC(=O)[C@@]2(C)CC[C@]3(C)CC[C@]4(C)C(=CC(=O)[C@@H]5[C@@]6(C)CC[C@H](OC(=O)[C@@H](N)CCSC)C(C)(C)[C@@H]6CC[C@]54C)[C@@H]3C2)cc1 [Compound 45, trans-4-Hydroxycinnamic acid methyl ester 3β-(l-methionine)-11-oxo-olean-12-en-30-oate hydrochloride]	–	–	–	–	IC50 [1, 4]: 8.48 ± 0.73 µM; IC50 [2, 5]: 7.24 ± 0.3 µM; IC50 [3, 6]: 6.43 ± 0.84 µM
